Experimental data from US6989443B2, “Carboranylporphyrins and uses thereof” (Brookhaven Science Associates, LLC, priority 2004, dated 2006).

Assays:
EMT-6 mammary carcinomas = assay: Biodistribution of porphyrin IX in mice bearing EMT-6 carcinomas (tissue boron analyses); assay type: in vivo, BALB/c mice; details: for Average boron concentration, Blood / Average boron concentration, Brain / Average boron concentration, EMT-6 Tumor / Average boron concentration, Liver: 87 mg/kg (30 mg B/kg) in 3 i.p. injections over 8 hours, n = 5
Experimental: (§1) BALB/c mice bearing subcutaneously implanted EMT-6 mammary carcinomas implanted on the dorsal thorax were given a total dose of 87 milligrams porphyrin compound (IX) per kilogram body weight (30 mg B/kg) in 3 intraperitoneal (i.p.) injections over a period of 8 hours. At two and four days after the last injection, mice were euthanized, and tumor, blood, brain, and liver were removed for boron analyses. The blood was first analyzed for hematologic parameters that indicate toxicity before it was analyzed for boron.

[1] = Weight changes and hematologic parameters from porphyrin (IX) in mice; details: for % Weight change / Granulocytes / Lymphocytes / Platelets: median (and range)
Experimental: as §1

malignant brain tumors = details: in vivo; cited from earlier work
[2] = 2 days after last injection, 87 mg/kg (30 mg B/kg)
[3] = 4 days after last injection, 87 mg/kg (30 mg B/kg)

Copper meso-5,10,15,20-tetrakis[3-(3,5-o-dicarboranyl methoxybenzyloxy)phenyl]porphyrin [Porphyrin compound (IX)]
Average boron concentration, Blood (EMT-6 mammary carcinomas; 2 days after last injection): 0.5 ± 0.2 μg B/g
Average boron concentration, Brain (EMT-6 mammary carcinomas; 2 days after last injection): 0.2 ± 0.0 μg B/g
Average boron concentration, EMT-6 Tumor (EMT-6 mammary carcinomas; 2 days after last injection): 43.5 ± 10.0 μg B/g
Average boron concentration, Liver (EMT-6 mammary carcinomas; 2 days after last injection): 353 ± 55 μg B/g
Average boron concentration, Blood (EMT-6 mammary carcinomas; 4 days after last injection): 0.2 ± 0.1 μg B/g
Average boron concentration, Brain (EMT-6 mammary carcinomas; 4 days after last injection): 0.3 ± 0.2 μg B/g
Average boron concentration, EMT-6 Tumor (EMT-6 mammary carcinomas; 4 days after last injection): 27.8 ± 7.6 μg B/g
Average boron concentration, Liver (EMT-6 mammary carcinomas; 4 days after last injection): 250 ± 70 μg B/g
tumor to brain boron ratio (EMT-6 mammary carcinomas; EMT-6 tumor-bearing mice, compared with tumor to blood ratio): even higher
tumor boron concentrations, adequacy for therapy (EMT-6 mammary carcinomas; particularly at the two-day time-point): adequate for therapy
weight change compared to solvent-injected mice ([1]; 87 mg/kg (30 mg B/kg)): no differences between porphyrin- and solvent-injected mice
platelet count compared to solvent-only mice ([1]; 2-day time point): small but significant decrease
platelet count compared to solvent-only group ([1]; 4-day time point): rebounded to a level greater than those from the solvent-only group
% Weight change [1, 2]: 0.4 (−4.9–2.5) %
Granulocytes [1, 2]: 53 (42–60) % WBC
Lymphocytes [1, 2]: 44 (37–56) % WBC
Platelets [1, 2]: 193 (51–432) 10^3/mm^3
% Weight change [1, 3]: −0.6 (−4.7–1.5) %
Granulocytes [1, 3]: 62 (57–67) % WBC
Lymphocytes [1, 3]: 35 (30–39) % WBC
Platelets [1, 3]: 917 (670–1128) 10^3/mm^3

N[C@@H](Cc1ccc(B(O)O)cc1)C(=O)O [BPA, p-boronophenylalanine]
chemical toxicity (malignant brain tumors): low chemical toxicity
